Like-named read-outs stand apart in the source and are kept apart here.
Legend:
[1] = test system: HCT-116 spheroids; assay: HCT-116 spheroid viability / mitochondrial staining, high-content imaging (Example 1); format: cell-based; settings: 72 hours
Procedure: Monolaurin was also similarly compared as a non-pegylated Lauric acid control.
HCT-116 cells were cultured according to ATCC guidelines and spheroids containing the cells were incubated in plate maps. […] After 72 hours of incubation, the images were taken at 10× with a 25-step z-stack in […] on a Molecular Devices imager.
On the day of dosing, C12 (C12=C12-Ether-PEG-1000), C-18 (C18=C18-amide-PEG-1000) and monolaurin were reconstituted in DMSO to make stock solutions of 60 mM. Lauric Acid and Polyethylene Glycol were also reconstituted in DMSO to make stock solutions of 120 mM. C-12, C-18 and monolaurin stock solutions were then serially diluted at half-log steps in DMSO and then diluted 100× in maintenance media. Lauric Acid and monomethoxy polyethylene glycol MW 1000 (PEG) were serially diluted in DMSO and then diluted 200× in maintenance media. Dosing done according to manufacturer's protocol.
DMSO concentrations were kept consistent across all wells at 0.5%. Following dosing, Plate 1 & 2 were incubated in a 37° C., 5% CO2 incubator for 72 hours. Plate 1 was removed from incubation between 60 and 180 min timepoints for imaging. Well A05 in Plate 1 was imaged in bright field at 10× while incubated in the imager at 37° C. Images were taken at 5-minute intervals for 120 mins. Following imaging, Plate 1 was immediately placed back into 37° C., 5% C02 incubator. […]

[2] = test system: HCT-116 cells; settings: HCT-116 2-D, 72 hours
Procedure: Cells were incubated for 72 hours in a 37° C./5% CO2 incubator. […] At the conclusion of the 72-hour timepoint, cells were labeled with 6 μL/mL MitoTracker Deep Red and 1:250 Viability Dye.
Following labeling, cells were fixed in 10% neutral buffer formalin and permeabilized with 0.2% Triton X-100 in 1×PBS. Cells were then labeled with 1:500 Hoechst 33342 Ready Flow™ Reagent And 5 μL/mL Alexa Fluor 488 phalloidin.
Cells were then imaged at 20× widefield using a Molecular Devices ImageXpress Micro Confocal High-Content imaging platform. The scan laser/dichromic settings were tuned for 405, 488, 647, and 730 nm excitation wavelengths. Images were acquired and saved as 16-bit 2048×2048 TIF files for further processing. A grid of the sites at well centers was acquired during image capture.
The images were then analyzed using nuclear, phalloidin, and MitoTracker Channels. The number of cells was determined for each. Viable and non-viable cells were determined using colocalization of the nuclear channel and the viability dye images after thresholding. Phalloidin and MitoTracker cell object intensity distributions were quantified using cellular objects positive for phalloidin and MitoTracker. Statistical analysis was performed using GraphPad Prism statistical software. Nonlinear regression was used as a curve fitting tool to determine compound efficacy.

[3] = test system: PDX derived cell line models (pancreatic cancer patients) in co-culture with human dermal fibroblasts; assay: Cypre 3D Oncology in vitro patient-derived xenograft (PDX) Panel (Example 11); format: cell-based; settings: treated four days, 5 patients
Procedure: In this example, a Cypre PDX assay was carried out in 5 different pancreatic cancer patients using 5 test compounds. […] The endpoint from this assay was tumor size and DRAQ7 staining.
PDX Tumor cells were expanded in 2D cell culture and then grown in 3D hydrogels, co-embedded with human dermal fibroblasts (HDF). […] After, 3D assays were stained with Hoechst and DRAQ7, fixed, and analyzed using a high content imager and proprietary image analysis software.

[4] = test system: human pancreatic cancer (BXPC3) cells
Procedure: In this example, human pancreatic cancer (BXPC3) cells were grown on microscope slides for 24 hours prior to administration of test articles. […] Imaging was at 10× with photographs taken once every five minutes.
The timeline proceeds from left to right.

[5] = test system: BXPC3 cells
Source text: Molecular crowding occurs when high concentrations of macromolecules reduce the volume of solvent available for other molecules in the solution, effecting the properties of cellular water. […] An increase in dry mass on addition of drug to the cells reflects uptake of the conjugate into the intracellular space. […] The method has been used to evaluate a dose response relationship and the characteristic response patterns of specific cell types to selected polyethylene glycol fatty acid conjugated structures.

[6] = test system: A549, HL-60, Raji B, Panc-1, and PC3 cancer cell lines; settings: 4-5 h period, 5 cell lines
[7] = test system: human pancreatic cancer (BX PC3) cells; settings: 200 micromolar, 24 hours

Compound: CCCCCCCCCCCC(=O)O [Lauric Acid]
- effect on cell viability, treatment vs control [1]: no difference between treatment and control

Compound: polyethylene glycol octadecyl ether [C18-Ether-PEG-5000]
- MitoTracker intensities [2]: no effects
- concentration at which total cell death / death of all the cells occurred [2]: 100 µM
- DRAQ7 cell death assay: activity in comparison with standard of care [3]: equal to standard of care
- Tumor Total area: activity in comparison [3]: equal to standard of care
- cell destruction vs no drug control ([4]; 300 μM, 24 hours of incubation): completely destroyed
- effect on existing cell mass / clusters ([4]; 300 μM, after 19 hours): dissociation of the accumulated mass and loss of cellular motility and death
- kill kinetic ([4]; BXPC3, 300 μM (Example 3)): 19 h

Compound: CCCCCCCCCCCCCCCCCCNc1c(NCCOCCOCCOCCOCCOCCOCCOCCOCCOCCOCCOCCOCCOCCOCCOCCOCCOCCOCCOCCOCCOCCOC)c(=O)c1=O [C18-Squaramide-PEG-1000, 3-((2,5,8,11,14,17,20,23,26,29,32,35,38,41,44,47,50,53,56,59,62,65-docosaoxa-heptahexacontan-67-yl)amino)-4-(octadecylamino)cyclobut-3-ene-1,2-dione]
- Tumor Total area: activity in comparison [3]: similarity in activity

Compound: polyethylene glycol octadecyl ether [C18-Ether-PEG-1000]
- MitoTracker intensities [2]: modest effect
- concentration at which total cell death / death of all the cells occurred [2]: 50 µM
- effects on cell viability [2]: strong effects on cell viability
- effect on cells ([4]; 100 μM and 200 μM, 24 hours of incubation): drastic with both concentrations
- cell kill at lower vs higher concentration ([4]; 100 μM vs 200 μM, 24 hours): less cell kill at the lower concentration
- effect on a cluster of cells ([4]; 200 μM, 1-hour period): membrane disruption and cell death
- time to cell fragmentation after dosing ([4]; 200 uM, single cell): ≤ 60 min
- time post dosing to membrane disruption leading to cell death [5]: ≤ 40 min
- drop of cell mass ([5]; first study (FIG. 17A)): 3 fold
- time post dosing of phase drop in dry mass ([5]; first study (FIG. 17A)): 30 to 50 min
- cell mass decrease, factor ([5]; repeat study (FIG. 17D)): 2
- time of major phase drop after the addition of the drug ([5]; repeat study (FIG. 17D)): about 25 minutes
- cell death ([6]; 50 μM): 80%
- cell death ([6]; 100 μM): 100%
- number of cells in clusters vs no drug control [7]: significantly reduced
